In publication PMC9968125, “Secondary Metabolites with Anti-Inflammatory Activity from Laurencia majuscula Collected in the Red Sea” (Marine Drugs, 2023):
Entries after “also recorded” stand apart in the source; their conditions may differ. Read-outs that look alike come from different tables or passages of the source.

Legend:
RAW 264.7 cells = experiment: MTT assay, cytostatic activity on RAW 264.7 cells; assay type: cell-based, mouse; settings: for Cytostatic Activity: RAW 264.7, at 72 h, n.a. = no cytostatic activity observed at the concentrations tested; for cytostatic activity above the stated concentration: RAW 264.7, 24, 48 and 72 h
Method: In order to verify that the anti-inflammatory activity observed was not due to a potential cytostatic effect of the metabolites, an MTT assay was performed in cells exposed to increasing concentrations of metabolites 1, 2, 4–8, 10, 12–16, 18 and 20–22 for 24, 48 and 72 h (Table 3, Figure 5). The time point that the cytostatic activity was observed reflected its potency since cytotoxicity is a cumulative process.
Mouse macrophage RAW 264.7 cell line was cultured in DMEM medium (cat. # 21885-025, Gibco) supplemented with 10% v/v heat-inactivated fetal bovine serum (cat. # 10270-106, Gibco) and 1% v/v penicillin-streptomycin (cat. # 15070-063, Gibco). Cells were grown in stable conditions, 37 °C and 5% CO2, in a CO2 cell culture sterile incubator. In compound treatments, each compound tested was diluted in Carbowax^TM 400 + 10% abs. ethanol (E/0650DF/17, Fisher chemical), serving also as the control solvent. The final concentration of ethanol in cell culture was 0.01% v/v and of Carbowax^TM 400 0.1% v/v independently of the compound dilution prepared. Macrophage activation was performed using 100 ng/mL LPS (L2630, Sigma) and, in the case of compound-treated cells, macrophages were pre-treated for 1 h with the respective compounds before LPS stimulation.
5 × 10^3 RAW 264.7 mouse macrophages per sample were seeded in 96-well plates (one plate per measurement) and cultured overnight. Cells were treated with the respective compound concentration and incubated for 24, 48 or 72 h. The number of cells was measured prior to treatment and used as normalization control. Thiazolyl Blue Tetrazolium Bromide (MTT) (A2231.001, Applichem) was added to the cells in a final concentration of 500 µg/mL and then cells were incubated at 37 °C plus 5% CO2 for 4 h. The supernatant was removed, and cells were lysed in a mix of 100 μL of isopropanol with 0.4% HCl. The absorbance of each sample was measured using an automated microplate reader (Infinite 200 PRO, Tecan) at 600 nm. The average OD of each treated sample was normalized to the OD of the control sample.

[1] = system: nitric oxide (NO) production in LPS-activated RAW 264.7 macrophages; experiment: Suppression of NO release (Griess reaction) in LPS/TLR4-activated RAW 264.7 macrophages; assay type: cell-based, mouse; settings: for IC50: 1 h pre-treatment, LPS 100 ng/mL, Griess reaction at 48 h, read-out: Inhibition of NO Production (IC50)
Method: The anti-inflammatory activity of metabolites 1, 2, 4–8, 10, 12–16, 18 and 20–22 was evaluated using the RAW 264.7 macrophage cell line, which has been proven to be a powerful tool for the detection of bioactivity of natural products. The bioactivity of compounds 3, 9, 11, 17 and 19 was not evaluated since they were either proven unstable or isolated in insufficient amounts. RAW 264.7 macrophages were stimulated with the TLR4 ligand LPS, which triggers a pro-inflammatory signal that induces nitric oxide (NO) production, and […] with increasing concentrations of the tested metabolites. The detection of NO was achieved using Griess reaction 48 h following cell activation and was used to determine the IC50 values. Inhibition of NO production was determined by comparing metabolite-treated cells with cells exposed to the vehicle solvent only (0.1% v/v Carbowax^TM 400 and 0.01% v/v ethanol). […] Mouse macrophage RAW 264.7 cell line was cultured in DMEM medium (cat. # 21885-025, Gibco) supplemented with 10% v/v heat-inactivated fetal bovine serum (cat. # 10270-106, Gibco) and 1% v/v penicillin-streptomycin (cat. # 15070-063, Gibco). Cells were grown in stable conditions, 37 °C and 5% CO2, in a CO2 cell culture sterile incubator. In compound treatments, each compound tested was diluted in Carbowax^TM 400 + 10% abs. ethanol (E/0650DF/17, Fisher chemical), serving also as the control solvent. The final concentration of ethanol in cell culture was 0.01% v/v and of Carbowax^TM 400 0.1% v/v independently of the compound dilution prepared. Macrophage activation was performed using 100 ng/mL LPS (L2630, Sigma) and, in the case of compound-treated cells, macrophages were pre-treated for 1 h with the respective compounds before LPS stimulation. 30 × 10^4 RAW 264.7 mouse macrophages per sample were cultured overnight in 24-well plates. The following day, cells were pre-treated for 1 h with the respective compound concentration and then activated using LPS (100 ng/mL) for 48 h. The amount of nitrite, an oxidative product of NO, released in each culture supernatant was measured using Griess reaction. Accordingly, 50 µL of sulfanilamide solution (1% sulfanilamide in 5% H3PO4) was added to 50 µL of cell culture supernatant and the mix was incubated for 5 min at room temperature. Then, 50 µL of NED solution (0.1% N-1-napthylethylenediamine dihydrochlorite in H2O) was added and the absorbance was measured at 540 nm using an automated microplate reader (Infinite 200 PRO, Tecan). All incubations were performed in the dark and the nitrite concentration was estimated using a sodium nitrite standard curve.

[2] = Chemical stability of the isolated compound upon standing; assay type: physicochemical; settings: upon standing after isolation
[3] = Mus musculus, RAW264.7, RAW 264.7 macrophages

SMILES | Cytostatic Activity (RAW 264.7 cells) [µM] | IC50 [1, 3] [µM] | cytostatic activity above the stated concentration (RAW 264.7 cells) | stability of the isolated compound, in words [2] | IC50 ([1]; RAW 264.7 macrophages) [µM] | concentration at which significant NO reduction was observed ([1]; LPS-activated RAW 264.7, activity only at this concentration) [µM]
C#C/C=C\CC(Br)[C@@H]1C[C@@H](OC(C)=O)[C@H](CCCCC)O1 (relative stereo) [Compound 5, (3Z,7S*,9R*,10S*)-9-acetoxy-6-bromo-7,10-epoxypentadec-3-en-1-yne] | > 50 | 3.69 | – | – | – | –
C[C@@]12O[C@]1(C)CC[C@@]2(C)c1ccc(CO)cc1 (relative stereo) [Compound 10, (1S*,2S*,3R*)-2,3-epoxy-15-hydroxydihydroisolaurene] | > 50 | 20.5 | above 50 μM | – | – | –
Cc1ccc([C@]2(C)CC[C@@]3(C)O[C@]32C)cc1 (relative stereo) [Compound 11, (1S*,2S*,3R*)-2,3-epoxydihydroisolaurene] | – | – | – | quite unstable | – | –
CC1=C(C)[C@](C)(c2ccc(CBr)cc2)CC1 (single isomer, unassigned) [Compound 8, 15-bromoisolaurene] | > 25 | 6.92 | above 25 μM | – | – | –
CC(=O)CC[C@](C)(C(C)=O)c1ccc(CO)cc1 (single isomer, unassigned) [Compound 14, 2,3-dioxo-15-hydroxy-seco-laurene] | > 25 | 22.7 | above 25 μM | – | – | –
CC1=C(C)[C@](C)(c2ccc(C)cc2)CC1=O (stereo in doubt) [Compound 7, 4-oxoisolaurene] | > 25 | 25.3 | above 25 μM | – | – | –
C#CC=CC(Cl)C1C2CC3OC(OC)(C(Br)CC)C1C3O2 (centres unmarked) [Compound 1, Maneonene F] | – | 10.2 | did not exhibit any cytostatic activity; also recorded: did not show any cytostatic effect | – | – | –
C#CC=CC(Cl)C1C2CC3OC(OC)(C(Br)CC)C1C3O2 (centres unmarked) [Compound 2, Maneonene G] | > 25 | – | above 25 μM | – | 12.7 | –
C#CC=CC(Cl)C1C2CC3OC(OC)(C(Br)CC)C1C3O2 (centres unmarked) [Compound 3, Maneonene H] | – | – | – | unstable | – | –
C#C/C=C\[C@@H](Cl)[C@H]1[C@@H]2/C(=C(/Br)CC)O[C@@H]3C[C@H]1O[C@H]23 [Compound 4, cis-maneonene D] | – | 8.91 | did not exhibit any cytostatic activity; also recorded: no significant cytostatic activity | – | – | –
CC1=C(C)[C@](C)(c2ccc(C)cc2)CC1 [Compound 6, isolaurene] | > 50 | > 62.5 | – | – | – | 62.5
C=C1[C@](C)(O)CC[C@@]1(C)c1ccc(CO)cc1 [Compound 12, laur-2-ene-3,12-diol] | > 50 | 45.2 | above 50 μM | – | – | –
CC1(C)[C@H](O)CC[C@@]1(C)c1ccc(CO)cc1 [Compound 13, cuparene-3,12-diol] | > 50 | 23.8 | above 50 μM | – | – | –
C=CC(C)(O)CC[C@@H]1C(=C)CC[C@H](Br)C1(C)C (stereo partly drawn) [Compound 15, β-snyderol] | > 25 | 33.1 | above 25 μM | – | – | –
CC1=CC[C@@H](Br)C(C)(C)[C@]12CC[C@](C)(Cl)[C@@H](Br)C2 [Compound 16, 2,10-dibromo-3-chloro-a-chamigrene] | > 25 | 4.97 | above 25 μM | – | – | –
CC1=CC[C@H](C)[C@](C)(O)[C@@]12CC[C@@](C)(Cl)[C@H](Br)C2 [Compound 18, compositacin A] | – | 3.55 | – | – | – | –
CC1CCC(O)C2=CCC3C(C3(C)C)C21C (stereo not drawn) [Compound 20, aristol-9-en-1α-ol] | > 50 | 10.5 | above 50 μM | – | – | –
C=C1CCC(Br)C(C)(C)C12CCC1(C)C(Br)CCC(C)(O)C1C2 (centres unmarked) [Compound 21, kahukuene B] | > 25 | 6.66 | – | – | – | –
CCCCCCCCCCCC/C=C(\Cl)C=O [Compound 22, (2Z)-2-chloro-pentadec-2-enal] | > 3.12 | 13.2 | > 3.125 µM | – | – | –
